System: bacterial pool: Burkholderia cepacia, Pseudomonas aeruginosa, Psuedomonas putida, Acinetobacter lwoffii
Assay: Modified preservative challenge test (Ph. Eur. 5.1.3) in laundry liquid, Total Viable Count pour plate
Assay type: cell-based
Settings: for Preservation of a laundry liquid composition (result in words): summary of the challenge test data set
Method: A modified challenge that complies with the current European Pharmacopoeia (Ph. Eur. Or EP) 5.1.3 criteria was performed on a subsample of both the unpreserved and each dosed product. The bacterial pool was added to each sample container at a ratio of 1:100. The final concentration of inoculum in the product should be between 5×10^5 and 5×10^6 CFU/G of test product. Each product is mixed with a sterile spatula to ensure a homogenous distribution of the inocula throughout the product. [table] Both the inoculum level and the level of microorganism within each sample was quantified using a Total Viable Count (TVC) pour plate method at 7, 14, 21 and 28 days. A 1:10 dilution was made with a subsample of each product, performed separately in Peptone (0.1%)/tween 80 (2%) neutralising agent. A 1:10 and 1:100 dilution of each subsample was performed and pour plates produced at each dilution using tryptone soya agar. Plates were incubated at 28° C. for 48 hours and then examined for growth. Visible colonies were counted with the aid of a Quebec Colony Counter and recorded for analysis against the challenge test criteria. During the removal of a subsample of product for TVC, a re-inoculation is performed at 7 and 14 days, reintroducing 5×10^6 CFU/G of bacteria before mixing using a sterile spatula to homogenise the re-inoculation.

[1] = 0.5% in Example 1 laundry liquid, 7 days
[2] = 0.5% in Example 1 laundry liquid, 14 days, re-inoculated at 7 days
[3] = 0.5% in Example 1 laundry liquid, 21 days, re-inoculated at 7 and 14 days
[4] = 0.5% in Example 1 laundry liquid, 28 days, re-inoculated at 7 and 14 days
[5] = 1.0% in Example 1 laundry liquid, 7 days
[6] = 1.0% in Example 1 laundry liquid, 14 days, re-inoculated at 7 days
[7] = 1.0% in Example 1 laundry liquid, 21 days, re-inoculated at 7 and 14 days
[8] = 1.0% in Example 1 laundry liquid, 28 days, re-inoculated at 7 and 14 days

Row | SMILES | Microbial Log reduction [1] | Microbial Log reduction [2] | Microbial Log reduction [3] | Microbial Log reduction [4] | Microbial Log reduction [5] | Microbial Log reduction [6] | Microbial Log reduction [7] | Microbial Log reduction [8] | Preservation of a laundry liquid composition (result in words)
1 | O=C(O)CC(O)(CC(=O)O)C(=O)O [Citric acid] | >5.59 | <2.54 | <2.56 | <2.56 | >5.59 | >5.54 | >5.56 | >5.56 | not capable of effectively preserving a laundry liquid composition
2 | C=C(CC(=O)O)C(=O)O [Itaconic acid] | >5.59 | >5.54 | >5.56 | >5.56 | >5.59 | >5.54 | >5.56 | >5.56 | effective preservative
3 | CC(O)C(=O)O (stereo not drawn) [Lactic acid] | >5.59 | 2.32 | <2.56 | <2.56 | >5.59 | >5.54 | >5.56 | >5.56 | not capable of effectively preserving a laundry liquid composition
